Test results: patent US6046231A, “Use of 4'-bromoflavone in a cancer chemopreventative composition and method” (The Board of Trustees of the University of Illinois, priority 1999, dated 2000)
Entries after “also recorded” stand apart in the source; their conditions may differ.

Experiments:
[1] = system: QR XRE-CAT construct, HepG2 cells; test: CAT expression in HepG2 cells transfected with QR XRE-CAT; type: cell-based, human cells; rat QR gene; conditions: 10 μM, 48 h; listed as 4'-BF
Procedure: (§1) Transcient Transfection Gene Expression Assay. Cultured HepG2 human hepatoma cells were transfected with three plasmid constructs (PDTD-1697CAT, XRE-CAT, ARE-CAT) containing various portions of the 5'-region of the QR gene fused to the CAT gene using the calcium phosphate precipitation method (J. Sambrook et al., Molecular cloning: A Laboratory Handbook, Ed. Chris Nolan, CHS Laboratory Press, 1989). After 4 hours of transfection, the cells were treated with 10% glycerol for 3 minutes and rinsed with PBS and switched to MEM, containing 100 units/ml penicillin G sodium, 100 units/ml streptomycin sulfate, nonessential amino acids, and 1 mM sodium pyruvate (Life Technologies Inc.) supplemented with 10% fetal bovine serum for 12-16 hours recovery. Then, test agents were added to the cells. After 48 hours of treatment with the test agents, cells were harvested with lysis buffer (Boehringer Mannheim Biochemical) and CAT protein expressions were assessed using a CAT ELISA kit (Boehringer Mannheim Biochemical). CAT enzyme expression was normalized for the protein content of each sample. All data were expressed as mean +/- SD. Means were compared using Student's t test with n=4.
This was further investigated in transient transfection experiments wherein human hepatoma cells were transfected with DNA constructs containing various portions of the 5' upstream promoter region of the QR gene linked to the CAT reporter gene by using the calcium phosphate precipitation method. Construct pDTD-1097CAT contains elements of the rat QR gene connected to the CAT construct gene. […]
(§2) In particular, FIG. 1 illustrates quantitation of CAT expression in HepG2 cells transfected with QR-CAT constructs. […] CAT expression (ng CAT/mg protein) was determined using a CAT ELISA, and the ratio of CAT expression between treated and control cells was calculated (ratio=treated/control).

quinone reductase (QR) = test: Effect on DMBA-induced QR activity in rat tissues; type: in vivo, Sprague Dawley rat; conditions: liver and mammary gland
Procedure: Effect of 4'-Bromoflavone on DMBA-induced QR Activity and Cytochrome P4501A1 Activity in Rat Tissues. At 43 days of age, Sprague Dawley rats were placed on various experimental diets (Table 1) for 1 week prior to administration of a single (i.g.) dose of DMBA (15 mg). Animals then were weighed and sacrificed by CO2 asphyxiation. Tissues (livers and mammary glands) were collected, rinsed with saline, frozen in liquid nitrogen, and stored at -80° C. until analysis. Individual tissues were homogenized in 0.05 M Tris-HCl buffer (pH 7.5) containing 0.25 M sucrose. Cytosolic and microsomal fractions were obtained through differential centrifugation. Dicumarol-sensitive QR activity was measured as described above using 50 μl of suitably diluted cytosol supernatants (in duplicate). Cytochrome P4501A1-mediated EROD activities were determined as described previously in R. Poul et al. Anal. Biochem., 107, pp. 265-275 (1980) and S. Sharma et al., Cancer Res., 54, pp. […] (1994), with slight modifications using suitably diluted microsomal protein. Enzyme activities were expressed as nmol/mg protein/min. Protein content was determined using Bradford reagent with BSA as standard, and data were presented as mean ±SE and analyzed using Student's t test (n=5).
Test animals were placed on various experimental diets for one week (Table 1) prior to a single i.g. dose of DMBA (15 mg). […]

[2] = system: pDTD-1097CAT construct (QR gene 5'-region), HepG2 cells; test: CAT expression in HepG2 cells transfected with pDTD-1097CAT; type: cell-based, human cells; rat QR gene; conditions: 10 μM, 48 h; p<0.0001
Procedure: as §1, with “CAT enzyme expression was normalized for the protein content of each sample.” left out, “Means were compared using Student's t test with n=4.” left out
as §2

In the case of `O=c1cc(-c2ccc(Br)cc2)oc2ccccc12` [4'-Bromoflavone], the “CAT expression, QR XRE-CAT” value [1] is reported as “Significant induction; also recorded: significantly (P<0.0001, students t test with n=4) induced”, the “QR activity vs control (basal diet)” value (quinone reductase (QR); 1 week diet, DMBA 15 mg i.g.) is reported as “significantly induced” and the “QR activity vs DMBA alone” value (quinone reductase (QR); DMBA and 4'-BF or 4'-BF alone) is reported as “significant dose-dependent induction”. For the same compound, the “CAT expression, pDTD-1097CAT” value [2] was “significantly (p<0.0001) induced”.
